Measured values: publication PMC4585259 (Frontiers in Pharmacology, 2015)
Like-named read-outs stand apart in the source and are kept apart here.

Biological target: T1, rNav1.2 sodium channels (Rattus norvegicus, UniProt P04775)
T1 construct: host or cells: HEK-293
Experiment: QPatch automated patch clamp, inhibition of sodium currents evoked by 5 Hz trains at three extracellular pH values
Type: cell-based
Details: for class of pH-dependence pattern (cluster analysis): Ward's method on 18 variables of affinity, reversibility, onset; for τoffset / τonset: concentration (lidocaine 300 μM, memantine 30 μM)
How it was run: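 Trains of 5 steps from −90 to −10 mV every 20 s. Apparent affinity, onset/offset time constants (single-exponential fits) and reversibility (w−i)/(c−i) were derived from single-concentration data.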

[1] = pH 6.0, single concentration (lidocaine 300 μM, memantine 30 μM), geometric mean of 5, read-out: apparent affinity
[2] = pH 7.3, single concentration (lidocaine 300 μM, memantine 30 μM), geometric mean of 5, read-out: apparent affinity
[3] = pH 8.6, single concentration (lidocaine 300 μM, memantine 30 μM), geometric mean of 5, read-out: apparent affinity
[4] = pH=6.0, cc 30 mM, read-out: Apparent Affinity
[5] = pH=7.3, cc 30 mM, read-out: Apparent Affinity
[6] = pH=8.6, cc 30 mM, read-out: Apparent Affinity

T1 sequence (P04775 whole entry): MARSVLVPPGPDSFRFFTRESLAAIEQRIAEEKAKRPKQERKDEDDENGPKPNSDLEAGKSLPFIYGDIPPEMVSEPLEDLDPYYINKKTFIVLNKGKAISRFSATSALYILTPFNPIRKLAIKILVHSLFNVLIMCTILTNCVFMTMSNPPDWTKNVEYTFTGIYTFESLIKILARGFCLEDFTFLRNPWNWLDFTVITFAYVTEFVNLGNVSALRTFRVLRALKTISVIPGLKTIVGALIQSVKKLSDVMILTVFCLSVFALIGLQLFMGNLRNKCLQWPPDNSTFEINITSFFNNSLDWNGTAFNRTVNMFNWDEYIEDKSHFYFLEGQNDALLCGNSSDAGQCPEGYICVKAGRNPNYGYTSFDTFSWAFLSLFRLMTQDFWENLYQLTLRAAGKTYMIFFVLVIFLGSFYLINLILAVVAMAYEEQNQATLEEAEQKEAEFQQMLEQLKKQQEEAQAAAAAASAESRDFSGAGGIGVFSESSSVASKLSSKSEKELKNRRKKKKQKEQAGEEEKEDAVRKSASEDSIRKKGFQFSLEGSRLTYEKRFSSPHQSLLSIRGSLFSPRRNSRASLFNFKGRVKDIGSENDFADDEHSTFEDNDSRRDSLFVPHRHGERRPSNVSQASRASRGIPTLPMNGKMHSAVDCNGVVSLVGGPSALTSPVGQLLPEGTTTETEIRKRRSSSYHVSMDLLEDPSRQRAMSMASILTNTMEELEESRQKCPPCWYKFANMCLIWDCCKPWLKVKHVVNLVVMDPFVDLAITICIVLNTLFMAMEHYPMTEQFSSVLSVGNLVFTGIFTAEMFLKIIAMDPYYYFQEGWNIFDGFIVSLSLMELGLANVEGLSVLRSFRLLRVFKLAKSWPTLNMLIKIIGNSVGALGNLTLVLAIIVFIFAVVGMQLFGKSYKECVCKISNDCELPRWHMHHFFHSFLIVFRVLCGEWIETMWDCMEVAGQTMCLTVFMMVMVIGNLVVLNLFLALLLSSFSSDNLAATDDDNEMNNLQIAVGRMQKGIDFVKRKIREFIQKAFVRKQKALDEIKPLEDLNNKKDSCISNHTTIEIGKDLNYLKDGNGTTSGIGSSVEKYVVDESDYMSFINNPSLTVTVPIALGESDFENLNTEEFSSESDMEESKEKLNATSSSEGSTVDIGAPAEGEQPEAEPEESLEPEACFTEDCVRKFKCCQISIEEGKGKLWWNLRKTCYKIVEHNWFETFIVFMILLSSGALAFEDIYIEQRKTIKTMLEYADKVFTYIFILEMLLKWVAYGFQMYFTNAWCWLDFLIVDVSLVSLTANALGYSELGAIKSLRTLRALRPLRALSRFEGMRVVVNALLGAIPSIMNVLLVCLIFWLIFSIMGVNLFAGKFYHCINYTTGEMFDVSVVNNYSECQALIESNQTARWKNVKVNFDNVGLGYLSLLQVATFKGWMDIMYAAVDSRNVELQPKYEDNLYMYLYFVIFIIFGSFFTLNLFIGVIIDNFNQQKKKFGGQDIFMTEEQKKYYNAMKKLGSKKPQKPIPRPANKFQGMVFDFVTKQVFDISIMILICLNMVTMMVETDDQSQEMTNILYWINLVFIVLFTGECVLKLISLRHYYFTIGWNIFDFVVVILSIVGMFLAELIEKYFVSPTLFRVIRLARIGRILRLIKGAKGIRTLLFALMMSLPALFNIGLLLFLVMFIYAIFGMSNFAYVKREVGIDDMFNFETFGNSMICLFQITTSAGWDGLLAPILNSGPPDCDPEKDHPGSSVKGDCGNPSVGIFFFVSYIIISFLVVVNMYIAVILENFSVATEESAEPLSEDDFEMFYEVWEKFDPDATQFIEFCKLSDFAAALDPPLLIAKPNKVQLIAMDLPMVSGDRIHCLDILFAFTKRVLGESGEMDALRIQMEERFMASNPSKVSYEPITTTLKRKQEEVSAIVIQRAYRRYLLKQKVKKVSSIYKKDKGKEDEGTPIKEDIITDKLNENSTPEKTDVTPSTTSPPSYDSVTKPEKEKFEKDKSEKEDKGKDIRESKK

| Compound | class of pH-dependence pattern (cluster analysis) | τoffset (pH 6.0) [s] | τonset (pH 6.0) [s] | Kd [1] [µM] | τoffset (pH 7.3) [s] | τonset (pH 7.3) [s] | Kd [2] [µM] | τoffset (pH 8.6) [s] | τonset (pH 8.6) [s] | Kd [3] [µM] | effect of alkalic pH on onset/offset kinetics (in words) | Ratio Reversibility (pH 6.0/7.3, cc 30 mM) | Ratio Tau Offset (pH 6.0/7.3, cc 30 mM) | Ratio Tau Onset (pH 6.0/7.3, cc 30 mM) | log Ratio App Aff (pH 6.0/7.3, cc 30 mM) | Ratio Reversibility (pH 6.0/8.6, cc 30 mM) | Ratio Tau Offset (pH 6.0/8.6, cc 30 mM) | Reversibility (pH=6.0, cc 30 mM) | Reversibility (pH=7.3, cc 30 mM) | Reversibility (pH=8.6, cc 30 mM) | other results |
| --- | --- | --- | --- | --- | --- | --- | --- | --- | --- | --- | --- | --- | --- | --- | --- | --- | --- | --- | --- | --- | --- |
| Nc1nnc(-c2cccc(Cl)c2Cl)c(N)n1 [lamotrigine] | Class A | 14.40 | 11.40 | 329 | 13.40 | 13.00 | 622 | 17.80 | 16.00 | 821 |  |  |  |  |  |  |  |  |  |  | Ratio Reversibility (pH 6.0/7.3, cc 300 mM): 0.765; Ratio Tau Offset (pH 6.0/7.3, cc 300 mM): 1.075; Ratio Tau Onset (pH 6.0/7.3, cc 300 mM): 0.877; log Ratio App Aff (pH 6.0/7.3, cc 300 mM): -0.277; Ratio Reversibility (pH 6.0/8.6, cc 300 mM): 0.930; Ratio Tau Offset (pH 6.0/8.6, cc 300 mM): 0.809; Ratio Tau Onset (pH 6.0/8.6, cc 300 mM): 0.713; log Ratio App Aff (pH 6.0/8.6, cc 300 mM): -0.398; Ratio Reversibility (pH 7.3/8.6, cc 300 mM): 1.215; Ratio Tau Offset (pH 7.3/8.6, cc 300 mM): 0.753; Ratio Tau Onset (pH 7.3/8.6, cc 300 mM): 0.813; log Ratio App Aff (pH 7.3/8.6, cc 300 mM): -0.121; Reversibility (pH=6.0, cc 300 mM): 0.74; Kd (pH=6.0, cc 300 mM, read-out: Apparent Affinity): 329 µM; Reversibility (pH=7.3, cc 300 mM): 0.96; Kd (pH=7.3, cc 300 mM, read-out: Apparent Affinity): 622 µM; Reversibility (pH=8.6, cc 300 mM): 0.79; Kd (pH=8.6, cc 300 mM, read-out: Apparent Affinity): 821 µM |
| Fc1ccc([C@@H]2CCNC[C@H]2COc2ccc3c(c2)OCO3)cc1 [paroxetine] | Class C | 33.83 | 47.12 | 49.6 | 37.75 | 33.39 | 19.2 | 28.40 | 23.55 | 8.57 | acceleration of onset | 1.674 | 0.896 | 1.411 | 0.413 | 6.394 | 1.191 | 0.65 | 0.39 | 0.10 | Ratio Tau Onset (pH 6.0/8.6, cc 30 mM): 2.000; log Ratio App Aff (pH 6.0/8.6, cc 30 mM): 0.762; Ratio Reversibility (pH 7.3/8.6, cc 30 mM): 3.820; Ratio Tau Offset (pH 7.3/8.6, cc 30 mM): 1.329; Ratio Tau Onset (pH 7.3/8.6, cc 30 mM): 1.418; log Ratio App Aff (pH 7.3/8.6, cc 30 mM): 0.349; Kd [4]: 49.6 µM; Kd [5]: 19.2 µM; Kd [6]: 8.57 µM |
| CNCCCN1c2ccccc2CCc2ccccc21 [desipramine] | Class C | 56.80 | 65.77 |  | 57.40 | 44.40 |  | 59.00 | 26.92 |  | acceleration of onset |  |  |  |  |  |  | 0.64 | 0.42 | 0.11 |  |
| CCc1nn(CCCN2CCN(c3cccc(Cl)c3)CC2)c(=O)n1CCOc1ccccc1 [nefazodone] | Class G | 13.20 | 12.60 | 38.2 | 13.50 | 14.40 | 17.4 | 16.00 | 14.60 | 28.9 |  | 0.854 | 0.978 | 0.875 | 0.341 | 1.152 | 0.825 | 0.51 | 0.59 | 0.44 | alkalization-induced recovery (neutral-to-alkalic solution exchange, in words): prominent alkalization-induced recovery; reversibility at all three pH values (pH 6.0, 7.3 and 8.6): below 0.6; Ratio Tau Onset (pH 6.0/8.6, cc 30 mM): 0.863; log Ratio App Aff (pH 6.0/8.6, cc 30 mM): 0.122; Ratio Reversibility (pH 7.3/8.6, cc 30 mM): 1.349; Ratio Tau Offset (pH 7.3/8.6, cc 30 mM): 0.844; Ratio Tau Onset (pH 7.3/8.6, cc 30 mM): 0.986; log Ratio App Aff (pH 7.3/8.6, cc 30 mM): -0.220; Kd [4]: 38.2 µM; Kd [5]: 17.4 µM; Kd [6]: 28.9 µM |
